Legend:
[1] = tested on: HL-60 cells; assay: PGJ synthesis in HL-60 cells (ELISA); type: cell-based
Procedure: The CB2 antagonist SR144528 reduced ultrapure AJA-induced PGJ synthesis in HL60 immune system cells at low concentrations (squares). […] DMSO control (open circles). Treatments of cells was carried out in 48 well plates with 20,000 cells/500 μl RPMI/FCS media/well. Cells were incubated for 20 hrs at 37° C. and 5% CO2. Media was changed to 500 μl of serum free RPMI and TNFα (10 nM) added. […] N=4.

[2] = tested on: female CD-1 mice; assay: Mouse hot plate test for antinociception; type: in vivo; settings: 60 min after administration
[3] = tested on: female CD-1 mice; assay: Ring immobility (catalepsy) test
Procedure: The cataleptic response was measured using the ring test described by Pertwee (Pertwee R G, The Ring Test. A Quantitative Method of Assessing the Cataleptic Effect of Cannabis in Mice, Br. J. Pharmacol. 46:753-763 (1972)). Mice were placed on a horizontal wire ring 5.5 cm in diameter attached to a 16 cm vertical rod. The hind paws and fore paws were placed at opposite sides of the ring. The ambient temperature was maintained at 30° C. and the environment was free of auditory stimuli and bright lights. The response was calculated as the fraction of time the mouse was immobile over a five (5) minute test period.
A dose response was conducted for ultrapure AJA to oral doses of 0.05 to 56 mg/kg.
(§1) Compounds were administered at a volume of […] via oral gavage.
(§2) Female CD-1 mice (20-25 g), obtained from Charles River (Raleigh, N.C.), were used for assessment in hot plate nociception, rectal temperature, and ring immobility assays. Separate mice were used for testing each dose of each compound in this battery of procedures. The mice had free access to food and water when in their home cages. All animals were kept in a temperature-controlled (20-22° C.) environment with a 12-hour light-dark cycle (lights on at 7 a.m.).
Each mouse was tested in a battery of three tests, in which cannabinoid CB1 agonists produce in vivo effects in mice (Martin et al., 1991): antinociception (hot plate assay), decreased rectal temperature and ring immobility. Prior to administration of the test compound, rectal temperature and baseline latency in the hot plate test were measured in the mice. The latter procedure involved placing the mouse on a heated surface (mouse cold/hot plate analgesia apparatus; Stoelting, Wood Dale, Ill.) at a setting of 55° C. Time until the mouse lifts or licks a paw was measured, whereupon the mouse was removed from the apparatus. […] After measurement of baseline temperature and hot plate latency, mice were administered vehicle or drug via oral gavage. […] Subsequently, the mice were placed on a 5.5 cm ring attached at a height of 16 cm to a ring stand, and the amount of time the animals remained motionless during a 5 min period was recorded. In addition, the number of times the mouse fell or jumped off the ring was recorded. If the mouse fell off the ring more than 5 times, the test was terminated.
Rectal temperature values were expressed as the difference between control temperature (before injection) and temperature following drug administration (Δ° C.). Antinociception was expressed as the percent maximum possible effect (MPE) using a 30-s maximum test latency as follows: [(test−control)/(30−control)]×100. During assessment for catalepsy, the total amount of time (in seconds) that the mouse remained motionless on the ring apparatus (except for breathing and whisker movement) was measured and was used as an indication of catalepsy-like behavior. This value was divided by 300 s and multiplied by 100 to obtain a percent immobility. If the mouse fell off the ring more than 5 times, the test was terminated and ring immobility data for the mouse were not included in analysis. Separate between-subjects ANOVAs were used to analyze each measure. Significant differences from control (vehicle) were further analyzed with Tukey post hoc tests (α=0.05) as necessary.

[4] = tested on: female CD-1 mice; assay: Rectal temperature (mouse hypothermia assay)
Procedure: as §1, §2
Each mouse was tested in a battery of three tests, in which cannabinoid CB1 agonists produce in vivo effects in mice (Martin et al., 1991): antinociception (hot plate assay), decreased rectal temperature and ring immobility. Prior to administration of the test compound, rectal temperature and baseline latency in the hot plate test were measured in the mice. The latter procedure involved placing the mouse on a heated surface (mouse cold/hot plate analgesia apparatus; Stoelting, Wood Dale, Ill.) at a setting of 55° C. Time until the mouse lifts or licks a paw was measured, whereupon the mouse was removed from the apparatus. […] Subsequently, the mice were placed on a 5.5 cm ring attached at a height of 16 cm to a ring stand, and the amount of time the animals remained motionless during a 5 min period was recorded. In addition, the number of times the mouse fell or jumped off the ring was recorded. […]
Rectal temperature values were expressed as the difference between control temperature (before injection) and temperature following drug administration (Δ° C.). Antinociception was expressed as the percent maximum possible effect (MPE) using a 30-s maximum test latency as follows: [(test−control)/(30−control)]×100. During assessment for catalepsy, the total amount of time (in seconds) that the mouse remained motionless on the ring apparatus (except for breathing and whisker movement) was measured and was used as an indication of catalepsy-like behavior. […]

[5] = molecular target: CB1 receptor (Homo sapiens, UniProt P21554); settings: earlier ajulemic acid synthesis products, literature; cited from earlier work
[6] = tested on: female CD-1 mice; settings: oral; AJA reported in U.S. Pat. No. 5,338,753; cited from earlier work
[7] = tested on: tumor growth; settings: doses in the anti-inflammatory range, compared with THC; cited from earlier work
[8] = rat, at peak pharmacodynamic time points; cited from earlier work
[9] = tested on: neuropathic pain patients; settings: man, cited from earlier work
[10] = oral 30 and 100 mg/kg (both doses), vs vehicle, p<0.05

CB1 receptor, sequence (P21554 whole entry): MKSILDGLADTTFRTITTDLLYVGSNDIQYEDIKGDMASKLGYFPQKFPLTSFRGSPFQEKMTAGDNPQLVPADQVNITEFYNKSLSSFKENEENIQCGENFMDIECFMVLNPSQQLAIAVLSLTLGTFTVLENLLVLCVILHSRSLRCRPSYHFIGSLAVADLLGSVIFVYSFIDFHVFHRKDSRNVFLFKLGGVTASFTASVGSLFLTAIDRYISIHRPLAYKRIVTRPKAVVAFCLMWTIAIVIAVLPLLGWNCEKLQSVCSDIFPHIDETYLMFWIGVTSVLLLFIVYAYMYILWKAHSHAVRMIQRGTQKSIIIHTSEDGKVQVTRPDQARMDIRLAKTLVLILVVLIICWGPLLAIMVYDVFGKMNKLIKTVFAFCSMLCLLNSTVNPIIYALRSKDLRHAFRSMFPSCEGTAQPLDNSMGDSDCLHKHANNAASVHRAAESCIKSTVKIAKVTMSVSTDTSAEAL

SR144528
effect of CB2 antagonist on ultrapure AJA-induced PGJ synthesis [1]: reduced

COc1ccc2c(c1)c(CC(=O)O)c(C)n2C(=O)c1ccc(Cl)cc1 [indomethacin, reference compound]
antinociception in the hot plate test (% MPE) ([2]; 30 mg/kg oral): did not significantly affect
ring immobility ([3]; 30 mg/kg oral): did not significantly affect
rectal temperature ([4]; 30 mg/kg oral): did not significantly affect

Cc1c(C(=O)NN2CCCCC2)nn(-c2ccc(Cl)cc2Cl)c1-c1ccc(Cl)cc1 [SR141716]
effect of CB1 antagonist on ultrapure AJA-induced PGJ synthesis ([1]; antagonist 10 μM, 2 hrs): much smaller effect

CCCCCc1cc(O)c2c(c1)OC(C)(C)[C@@H]1CCC(C)=C[C@@H]21 [Δ9-THC, reference compound]
antinociception in the hot plate test (% MPE) ([2]; oral 100 mg/kg only, vs vehicle, p<0.05): produced significant antinociception
ring immobility [3, 10]: produced significant
hypothermia (rectal temperature) [4, 10]: produced significant

CCCCCCC(C)(C)c1cc(O)c2c(c1)OC(C)(C)[C@@H]1CC=C(C(=O)O)C[C@@H]21 [HU-239]
ratio of CB1/CB2 binding [5]: 0.19
doses at which active in the mouse hot plate assay [6]: < 0.5 mg/kg

CCCCCCC(C)(C)c1cc(O)c2c(c1)OC(C)(C)[C@@H]1CC=C(C(=O)O)C[C@@H]21 [AJA, (6aR,10aR)-3-(1′,1′-dimethylheptyl)-Δ8-tetrahydro-cannabinol-9-carboxylic acid]
inhibition of tumor growth [7]: small but significant inhibition of tumor growth greater than that produced by THC
brain levels relative to those seen in the plasma [8]: 25-30%
cannabis-like psychotropic adverse events ([9]; neuropathic pain patients): absence
pain scores in neuropathic pain patients [9]: reduce pain scores

— patent US10369131B2, “Ultrapure tetrahydrocannabinol-11-oic acids” (Corbus Pharmaceuticals, Inc., priority 2013, dated 2019)
